Here are results for 10 molecules from ChEMBL document CHEMBL1138828, “A bivalent ligand (KDN-21) reveals spinal delta and kappa opioid receptors are organized as heterodimers that give rise to delta(1) and kappa(2) phenotypes. Selective targeting of delta-kappa heterodimers” (J Med Chem, 2004).

Experiment [1] deals with T1, Opioid receptor (Mus musculus, UniProt P42866+P32300+P33534). As to the kind of experiment: Compound was tested for binding affinity on intact HEK cells using [3H]diprenorphine as radioligand singly expressed with delta or kappa receptors. To be noted: hek293. In kind it is cell-based.
Experiment [2] concerns Mus musculus. As to the kind of experiment: Antagonism of kappa2 opioid agonist (bremazocine)-induced antinociception upon intrathecal administration in mice at a dose of 1.0 pmol. Type of experiment: functional.
Experiment [3] deals with Mus musculus. As to the kind of experiment: Antagonism of delta2 opioid agonist (deltorphin II)-induced antinociception upon intrathecal administration in mice at a dose of 1.0 pmol. In kind it is functional.
Experiment [4] concerns Mus musculus. As to the kind of experiment: Antagonism of delta1 opioid agonist (DPDPE)-induced antinociception upon intrathecal administration in mice at a dose of 1.0 pmol. In kind it is functional.
Experiment [5] addresses T1, Opioid receptor. As to the kind of experiment: Compound was tested for binding affinity on intact HEK cells using [3H]diprenorphine as radioligand co-expressed with delta and kappa opioid receptors. In kind it is cell-based. As to conditions: hek293.
The subject of experiment [6] is Mus musculus. Kind of experiment: Antagonism of kappa2 opioid agonist (bremazocine)-induced antinociception upon intrathecal administration in mice at a dose of 250 pmol. Type of experiment: functional.
The subject of experiment [7] is Mus musculus. Kind of experiment: Antagonism of delta2 opioid agonist (deltorphin II)-induced antinociception upon intrathecal administration in mice at a dose of 250 pmol. In kind it is functional.
For experiment [8], the system named is Mus musculus. Kind of experiment: Antagonism of delta1 opioid agonist (DPDPE)-induced antinociception upon intrathecal administration in mice at a dose of 250 pmol. In kind it is functional.
The test system of experiment [9] is Mus musculus. Kind of experiment: Antagonism of kappa1 opioid agonist (U-50,488)-induced antinociception upon intrathecal administration in mice at a dose of 250 pmol. In kind it is functional.
Experiment [10] deals with Mus musculus. Kind of experiment: Antagonism of delta1 opioid agonist (DPDPE)-induced antinociception upon intrathecal administration in mice at a dose of 2.5 pmol. Type of experiment: functional.
The test system of experiment [11] is Mus musculus. Kind of experiment: Antagonism of kappa2 opioid agonist (bremazocine)-induced antinociception upon intrathecal administration in mice at a dose of 2.5 pmol. In kind it is functional.
The test system of experiment [12] is Mus musculus. As to the kind of experiment: Antagonism of kappa1 opioid agonist (U-50,488)-induced antinociception upon intrathecal administration in mice at a dose of 2.5 pmol. Type of experiment: functional.
Experiment [13] concerns the target T1, Opioid receptor. As to the kind of experiment: Compound was tested for binding affinity on intact HEK cells using [3H]diprenorphine as radioligand singly expressed with delta or kappa receptor. In kind it is cell-based, Homo sapiens. To be noted: hek293.
Experiment [14] has as its system Mus musculus. Kind of experiment: Antagonism of delta2 opioid agonist (deltorphin II)-induced antinociception upon intrathecal administration in mice at a dose of 2.5 pmol. Type of experiment: functional.
Experiment [15] concerns Mus musculus. As to the kind of experiment: Antagonism of kappa2 opioid agonist (bremazocine)-induced antinociception upon intrathecal administration in mice at a dose of 30 pmol. In kind it is functional.
For experiment [16], the system named is Mus musculus. As to the kind of experiment: Antagonism of delta2 opioid agonist (deltorphin II)-induced antinociception upon intrathecal administration in mice at a dose of 30 pmol. Type of experiment: functional.
Experiment [17] concerns Mus musculus. Kind of experiment: Antagonism of delta1 opioid agonist (DPDPE)-induced antinociception upon intrathecal administration in mice at a dose of 30 pmol. Type of experiment: functional.
The test system of experiment [18] is Mus musculus. Kind of experiment: Antagonism of delta2 opioid agonist (deltorphin II)-induced antinociception upon intrathecal administration in mice at a dose of 25 pmol. Type of experiment: functional.
Experiment [19] deals with T1, Opioid receptor. Kind of experiment: Compound was tested for binding affinity on intact HEK cells using [3H]diprenorphine as radioligand co-expressed with delta and kappa opioid receptor. Type of experiment: cell-based. To be noted: hek293.
Experiment [20] deals with Mus musculus. As to the kind of experiment: Antagonism of delta1 opioid agonist (DPDPE)-induced antinociception upon intrathecal administration in mice at a dose of 25 pmol. Type of experiment: functional.
For experiment [21], the system named is Mus musculus. As to the kind of experiment: Antagonism of kappa2 opioid agonist (bremazocine)-induced antinociception upon intrathecal administration in mice at a dose of 25 pmol. In kind it is functional.
The test system of experiment [22] is Mus musculus. As to the kind of experiment: Antagonism of kappa1 opioid agonist (U-50,488)-induced antinociception upon intrathecal administration in mice at a dose of 30 pmol. In kind it is functional.
Experiment [23] has as its system Mus musculus. As to the kind of experiment: Antagonism of kappa1 opioid agonist (U-50,488)-induced antinociception upon intrathecal administration in mice at a dose of 25 pmol. In kind it is functional.
Experiment [24] deals with Mus musculus. As to the kind of experiment: Antagonism of kappa1 opioid agonist (U-50,488)-induced antinociception upon intrathecal administration in mice at a dose of 50 pmol. In kind it is functional.
Experiment [25] concerns Mus musculus. As to the kind of experiment: Antagonism of delta2 opioid agonist (deltorphin II)-induced antinociception upon intrathecal administration in mice at a dose of 50 pmol. In kind it is functional.
For experiment [26], the system named is Mus musculus. As to the kind of experiment: Antagonism of delta1 opioid agonist (DPDPE)-induced antinociception upon intrathecal administration in mice at a dose of 50 pmol. In kind it is functional.
The test system of experiment [27] is Mus musculus. As to the kind of experiment: Antagonism of kappa2 opioid agonist (bremazocine)-induced antinociception upon intrathecal administration in mice at a dose of 50 pmol. Type of experiment: functional.

For the molecule `N/C(=N\CCCNC(=O)CNC(=O)CCC(=O)NCC(=O)Nc1cccc2c3c([nH]c12)[C@@H]1Oc2c(O)ccc4c2[C@@]12CCN(CC1CC1)[C@H](C4)[C@]2(O)C3)Nc1ccc2[nH]c3c(c2c1)C[C@@]1(O)[C@H]2Cc4ccc(O)c5c4[C@@]1(CCN2CC1CC1)[C@H]3O5`, the figures for the inhibition constant (Ki) on Opioid receptor [1] and at Opioid receptor [5] were 6.3 nM and 315 nM, respectively. In addition, the ED50 with Mus musculus [2] was 2.5 nM mouse-1; in the experiment with Mus musculus [3], 1.9 nM mouse-1; in the experiment with Mus musculus [4], 2 nM mouse-1.
As for `Oc1ccc2c3c1O[C@H]1c4[nH]c5c(c4C[C@@]4(O)[C@@H](C2)N(CC2CC2)CC[C@]314)C[C@@]1(O)[C@H]2Cc3ccc(O)c4c3[C@@]1(CCN2CC1CC1)[C@H]5O4` [NORBINALTORPHIMINE], the ED50 in the experiment with Mus musculus [6] amounted to 129.5 nM mouse-1; in the experiment with Mus musculus [7], 1 nM mouse-1; in the experiment with Mus musculus [8], 12.4 nM mouse-1; in the experiment on Mus musculus [9] it was 5.3 nM mouse-1.
On to `NC(=NCCCCNC(=O)CNC(=O)CNC(=O)CCC(=O)NCC(=O)NCC(=O)Nc1cccc2c3c([nH]c12)[C@@H]1Oc2c(O)ccc4c2C12CCN(CC1CC1)C(C4)[C@]2(O)C3)Nc1ccc2[nH]c3c(c2c1)C[C@@]1(O)C2Cc4ccc(O)c5c4C1(CCN2CC1CC1)[C@H]3O5` (some centres undefined), for which the ED50 in the experiment on Mus musculus [10] is 6.3 nM mouse-1; with Mus musculus [11], 1.7 nM mouse-1; with Mus musculus [12], 0.6 nM mouse-1; with Mus musculus [14] it was 2.2 nM mouse-1. Further, the Ki (usually a dissociation constant, usually derived from enzyme kinetics or from competition with a known ligand) at Opioid receptor [5] was determined as 1.4 nM; on Opioid receptor [13] it was 1.1 nM.
For the molecule `N/C(=N\CCCNC(=O)CNC(=O)CNC(=O)CCC(=O)NCC(=O)NCC(=O)Nc1ccc2[nH]c3c(c2c1)C[C@]1(O)C2Cc4ccc(O)c5c4C1(CCN2CC1CC1)[C@@H]3O5)Nc1ccc2[nH]c3c(c2c1)C[C@]1(O)C2Cc4ccc(O)c5c4C1(CCN2CC1CC1)[C@@H]3O5` (some centres undefined), the ED50 with Mus musculus [15] was determined as 14.5 nM mouse-1; in the experiment on Mus musculus [16], 1 nM mouse-1; with Mus musculus [17] it was 1.1 nM mouse-1. Further, the Ki on Opioid receptor [5] is above 1000 nM; at Opioid receptor [13], 54.8 nM.
In the case of `O=C(CCC(=O)NCC(=O)NCC(=O)Nc1cccc2c3c([nH]c12)[C@@H]1Oc2c(O)ccc4c2C12CCN(CC1CC1)C(C4)[C@]2(O)C3)NCC(=O)NCC(=O)NCCCNC(=O)c1cccc2c3c([nH]c12)[C@@H]1Oc2c(O)ccc4c2C12CCN(CC1CC1)C(C4)[C@]2(O)C3` (some centres undefined), the ED50 is given as 2.4 nM mouse-1 in the experiment on Mus musculus [18], 1.1 nM mouse-1 in the experiment with Mus musculus [20] and 2.4 nM mouse-1 in the experiment with Mus musculus [21]. The Ki is above 1000 nM on Opioid receptor [19] and 199 nM on Opioid receptor [13].
Take `N/C(=N\CCCNC(=O)CNC(=O)CNC(=O)CCC(=O)NCC(=O)NCC(=O)Nc1cccc2c3c([nH]c12)[C@@H]1Oc2c(O)ccc4c2C12CCN(CC1CC1)C(C4)[C@]2(O)C3)Nc1ccc2[nH]c3c(c2c1)C[C@@]1(O)C2Cc4ccc(O)c5c4C1(CCN2CC1CC1)[C@H]3O5` (some centres undefined): the ED50 in the experiment on Mus musculus [22] was found to be 1.9 nM mouse-1; in the experiment on Mus musculus [15], 50.4 nM mouse-1; in the experiment with Mus musculus [16], 1.2 nM mouse-1; in the experiment on Mus musculus [17], 8 nM mouse-1. The Ki on Opioid receptor [1] is given as 63 nM; on Opioid receptor [5], 0.3 nM.
Regarding `O=C1/C(=C/c2ccccc2)C[C@@]2(O)[C@H]3Cc4ccc(O)c5c4[C@@]2(CCN3CC2CC2)[C@H]1O5` [BNTX], the ED50 is given as 1 nM mouse-1 with Mus musculus [18], 0.9 nM mouse-1 in the experiment with Mus musculus [23], 10.6 nM mouse-1 with Mus musculus [20] and 49.8 nM mouse-1 in the experiment with Mus musculus [21].
Consider `Oc1ccc2c3c1O[C@H]1c4oc5ccccc5c4C[C@@]4(O)[C@@H](C2)N(CC2CC2)CC[C@]314` [NALTRIBEN], for which the ED50 with Mus musculus [24] is reported as 0.8 nM mouse-1; in the experiment on Mus musculus [25], 9.1 nM mouse-1; in the experiment with Mus musculus [26], 1 nM mouse-1; in the experiment on Mus musculus [27], 5.8 nM mouse-1.
As for `N/C(=N\CCCCCNC(=O)CNC(=O)CNC(=O)CCC(=O)NCC(=O)NCC(=O)Nc1cccc2c3c([nH]c12)[C@@H]1Oc2c(O)ccc4c2C12CCN(CC1CC1)C(C4)[C@]2(O)C3)Nc1ccc2[nH]c3c(c2c1)C[C@@]1(O)C2Cc4ccc(O)c5c4C1(CCN2CC1CC1)[C@H]3O5` (some centres undefined), the Ki is recorded as 4.8 nM at Opioid receptor [19] and 3.3 nM at Opioid receptor [13]. Also, the ED50 in the experiment on Mus musculus [10] was 2.2 nM mouse-1; in the experiment with Mus musculus [11] it was 4.1 nM mouse-1; in the experiment with Mus musculus [14], 2.1 nM mouse-1.
For the molecule `NC(=NCCNC(=O)CNC(=O)CNC(=O)CCC(=O)NCC(=O)NCC(=O)Nc1cccc2c3c([nH]c12)[C@@H]1Oc2c(O)ccc4c2C12CCN(CC1CC1)C(C4)[C@]2(O)C3)Nc1ccc2[nH]c3c(c2c1)C[C@@]1(O)C2Cc4ccc(O)c5c4C1(CCN2CC1CC1)[C@H]3O5` (some centres undefined), the values for the ED50 in the experiment with Mus musculus [10], in the experiment with Mus musculus [11] and in the experiment on Mus musculus [14] were 3.4 nM mouse-1, 1.7 nM mouse-1 and 1.1 nM mouse-1, respectively. Moreover, the Ki at Opioid receptor [1] amounted to 58.8 nM; at Opioid receptor [5] it was 0.5 nM.
